Data reported in patent publication US8124365B2, “Identification of genotype-selective anti-tumor agents” (Whitehead Institute for Biomedical Research, priority 2003, dated 2012).

Assays:
Assay type in all cases: cell-based, human
[1] = tested on: BJ-TERT/LT/ST/RAS^V12 cells; assay: Nuclear morphology assay; conditions: fluorescence microscopy, 9 μM erastin or 1.1 μM camptothecin, 18 hours
Method: 200,000 tumorigenic BJ-TERT/LT/ST/RAS^V12 cells were seeded in 2 mL on glass coverslips in each well of a six-well dish, treated with nothing (NT), 9 μM erastin or 1.1 μM camptothecin (CPT) in growth medium for 18 hours while incubating at 37° C. with 5% CO2. Nuclei were stained with 25 μg/mL Hoechst 33342 (Molecular Probes) and viewed using an oil immersion 100× objective on a fluorescence microscope.

[2] = tested on: BJ-TERT/LT/ST/RAS^V12 cells; assay: DNA fragmentation (DNA ladder formation)
[3] = tested on: BJ-TERT/LT/ST/RAS^V12 cells; assay: Calcein AM viability assay, dilution series, BJ-TERT/LT/ST/RAS^V12 tumorigenic cells
Method: Described here is work carried out to identify compounds with increased potency or activity in the presence of hTERT, LT, ST, E6, E7 or RAS^V12. […] The primary screen tested (in quadruplicate) the effect of treating tumorigenic […], corresponding to 10 μM for a compound with a molecular weight of 400, which is the approximate median molecular weight of the libraries. […] In live cells, calcein AM is cleaved by intracellular esterases, forming the anionic fluorescent derivative calcein, which cannot diffuse out of live cells. […] The IC50 value (concentration required to inhibit 50% of the calcein AM signal) was calculated for each compound in each cell line (Table 1).
Calcein acetoxylmethyl ester (AM) is a cell membrane-permeable, non-fluorescent compound that is cleaved by intracellular esterases to form the anionic, cell-impermeable, fluorescent compound calcein. Viable cells are stained by calcein because of the presence of intracellular esterases and because the intact plasma membrane prevents fluorescent calcein from leaking out of cells (Wang et al., 1993, supra). Cells were seeded in 384-well plates using a Zymark Sciclone ALH, treated with each […], washed with phosphate-buffered saline on a Packard Minitrak with a 384-well washer and incubated for four hours with 0.7 μg/mL calcein (Molecular Probes). Total fluorescence intensity in each well was recorded on a Packard Fusion platereader, and converted to a percent inhibition of signal by subtracting the instrument background and dividing by the average signal obtained when cells were not treated with any compound.
Compounds to be retested were purchased from manufacturers. Stocks were prepared in DMSO at a concentration of 1 mg/ml in 384-well polypropylene plates with a 16-point, two-fold dilution dose curve of each compound in a column, in duplicates. Column 1-2 and 23-24 were left empty for controls. Daughter retest plates were prepared from stock retest plate by diluting 66.6 fold in DMEM in 384-well deep-deep well plates (4.5 μl transfer into 300 μl). Cells were seeded at a density of 6000 per well in 40 μl, and 20 μl was added from a daughter retest plate. […]
The IC50 in primary BJ cells was divided by the IC50 in BJ-TERT/LT/ST/RAS^V12 tumorigenic cells to obtain a tumor selectivity ratio for each compound. The compound selectivity for each genetic element was determined by calculating the selectivity ratio for each subsequent pair of cell lines in a series.

caspase 3 = assay: Western blot for active, cleaved caspase 3; conditions: lysates of treated BJ-TERT/LT/ST/RAS^V12 cells
Method: BJ-TERT/LT/ST/RAS^V12 cells were seeded prior to the experiment at 5×10^5 cells in 60 mm dishes. The cells were treated with 5 μg/ml erastin (9 μM) for 2, 4, 6, 8 or 10 hours. One dish was maintained for camptothecin treatment (0.4 μg/ml for 24 h) as a positive control. Cells were lysed after each time point in lysis buffer (50 mM HEPES KOH pH 7.4, […], 2 mM EDTA, 0.5% Triton X-100, 1.5 mM Na3VO4, 50 mM NaF, 10 mM sodium pyrophosphate, 10 mM sodium beta-glycerophosphate and protease inhibitor tablet (Roche)). Protein content was quantified using a Biorad protein assay reagent. Equal amounts of protein were resolved on 16% SDS-polyacrylamide gel. The electrophoresed proteins were transblotted onto a PVDF membrane, blocked with 5% milk and incubated with anti-active caspase-3 polyclonal antibody (BD Pharmingen) at 1:1500 dilution overnight at 4° C. The membrane was then incubated in anti-rabbit-HRP (Santa Cruz Biotechnology) at 1:3000 dilution for 1 hour and developed with an enhanced chemiluminescence mixture (NEN life science, Renaissance). To test for equivalent loading in each lane, blots were stripped, blocked, and probed with an anti-eIF-4E antibody (BD Transduction laboratories) at 1:1000 dilution.

BJ cells = assay: Calcein AM viability assay, dilution series, BJ primary cells; conditions: two days
From the text: Described here is work carried out to identify compounds with increased potency or activity in the presence of hTERT, LT, ST, E6, E7 or RAS^V12. Engineered cell lines with these genetic elements were used to screen 23,550 compounds, including 20,000 compounds from a combinatorial library, 1,990 compounds from the National Cancer Institute diversity collection, and 1,540 biologically active known compounds that were selected and purchased by Applicant and formatted into a screenable collection. […] Cell viability was measured using the dye calcein acetoxymethyl ester (calcein AM) (Wang et al., 1993, Hum. Immunol. 37, 264-270), which is a non-fluorescent compound that freely diffuses into cells. […]
Calcein acetoxylmethyl ester (AM) is a cell membrane-permeable, non-fluorescent compound that is cleaved by intracellular esterases to form the anionic, cell-impermeable, fluorescent compound calcein. […] Total fluorescence intensity in each well was recorded on a Packard Fusion platereader, and converted to a percent inhibition of signal by subtracting the instrument background and dividing by the average signal obtained when cells were not treated with any compound. […]
Mean RFU (relative fluorescence units) for untreated cells was calculated by averaging columns 1, 2, and 23 (wells with cells but lacking compounds). […]

| Compound | nuclear morphology (karyorhexis, margination of chromatin) [1] | DNA fragmentation (formation of a DNA ladder) [2] | time required to cause death ([3]; BJ-TERT/LT/ST/RAS^V12 cells) | activated (cleaved) caspase 3 (caspase 3) | IC50, concentration required to achieve 50% inhibition of calcein AM staining, BJ (BJ cells) | IC50, 50% inhibition of calcein AM staining, BJ-TERT/LT/ST/Ras^v12 ([3]; BJ-TERT/LT/ST/Ras^v12 cells, two days) | Tumor Selectivity ([3]; IC50 in primary BJ cells divided by IC50 in BJ-TERT/LT/ST/RAS^V12 tumorigenic cells) |
| --- | --- | --- | --- | --- | --- | --- | --- |
| CC[C@@]1(O)C(=O)OCc2c1cc1n(c2=O)Cc2cc3ccccc3nc2-1 [Camptothecin, camptothecin] | karyorhexis and margination of chromatin were clearly visible | induces DNA fragmentation | two days | harbor activated caspase 3 |  |  |  |
| Cc1c2ccccc2c(CSC(=N)N)c2ccccc12.Cl [NSC146109] |  |  |  |  | >5 µg/mL | 2.5 µg/mL | >4 |
